Measurements from US4525358A, “2-[4-(Diphenylmethyl)-1-piperazinyl]-acetic acids and their amides” (UCB Pharmaceuticals, Inc., priority 1981, dated 1985).
Like-named read-outs stand apart in the source and are kept apart here.

Tests used:
mice = conditions: intraperitoneal, two animals out of three
Excerpt: In the following Table IV, the lethal doses in mg/kg (two animals out of three) are given for compounds of the invention when administered intraperitoneally in mice:

[1] = system: bronchospasms induced by histamine; experiment: inhibition of histamine-induced bronchospasms (Konzett and Roessler), antihistaminic activity; format: in vivo, guinea pig; conditions: for ED50: Cavia porcellus, iv, read-out: ID 50, inhibition of bronchospasms induced by histamine
Protocol: (§1) Anaesthetized and curarized guinea pigs are subjected to artificial ventilation. The endotracheal pressure is recorded. Repetitive bronchial spasms are induced by successive and progressive intravenous injections of serotonin and histamine, respectively. The test compounds are also administered intravenously.

[2] = system: bronchospasms induced by serotonin; experiment: inhibition of serotonin-induced bronchospasms (Konzett and Roessler), spasmolytic activity; format: in vivo, guinea pig; conditions: for ED50: Cavia porcellus, iv, read-out: ID 50, inhibition of bronchospasms induced by serotonin
Protocol: as §1

[3] = system: general behaviour of mice; experiment: general behaviour of mice (Irwin's test), tranquilization; format: in vivo
[4] = system: passive cutaneous anaphylaxis; experiment: passive cutaneous anaphylaxis test (PCA), antiallergic activity; format: in vivo; conditions: rats; for ED50: Rattus norvegicus, po, read-out: ID 50 per os (reduction of 50% of the surface area of the colored spot); for ED50 / antiallergic activity (PCA), in words: per os
Protocol: This activity is determined in rats by means of the passive cutaneous anaphylaxis test (PCA) (see J. GOOSE and A. M. J. N. BlAIR, Immunology, 16, (1969), 749-760; and […] and D. ROEMER, Arzneimittel-Forschung, 28, (5), (1978), 770-782). Female rats are used, the sides of which have been partly shaved. Into the zone thus shaved there is injected intradermally, for passive sensitization of the animals, 0.05 ml of IGE antiovalbumin serum at a dilution such that, at the time of the PCA test, a distinct spot with a surface area of about 100 mm^2 appears at the point of injection. […] At the point of intradermal injection, there appears a distinct blue spot, the surface of which is measured. In order to test the activity of the compounds according to the present invention, the procedure is carried out in the same manner; however, the test compound is administered orally 72 hours after injection of the serum; 15 minutes after this administration, 0.25 ml of the solution of the allergen is injected intravenously; 30 minutes after the administration of the allergen, the surface of the blue spot is measured.

[5] = Belgian Patent Specification No. 763,609; cited from earlier work
[6] = J. med. Chem. 11 (1968), 390-391; cited from earlier work
[7] = intravenous; cited from earlier work
[8] = guinea pig, intravenous, histamine
[9] = guinea pig, intravenous, serotonin

| SMILES | Lethal dose (2/3) (mice) [mg/kg] | ED50 [1, 8] [µmol/kg] | ED50 [2, 9] [µmol/kg] | Tranquilizing dose (first manifestations of tranquilization) ([3]; male mice, intraperitoneal) [mg/kg] | ED50 ([4]; 15 minutes before allergen) [µmol/kg] | also measured |
| --- | --- | --- | --- | --- | --- | --- |
| NC(=O)COCCN1CCN(C(c2ccccc2)c2ccccc2)CC1 [A, 2-[2-[4-(Diphenylmethyl)-1-piperazinyl]ethoxy]-acetamide] | 255 | 0.23 | 0.78 |  |  |  |
| NC(=O)COCCN1CCN(C(c2ccccc2)c2ccc(Cl)cc2)CC1 (centres unmarked) [B, 2-[2-[4-[(4-chlorophenyl)phenylmethyl]-1-piperazinyl]ethoxy]-acetamide] | 232 | 0.45 | 0.88 | 38.7 | 36.5 |  |
| NC(=O)COCCN1CCN(C(c2ccccc2)c2ccc(F)cc2)CC1 (centres unmarked) [C, 2-[2-[4-[(4-fluorophenyl)phenylmethyl]-1-piperazinyl]ethoxy]-acetamide] | 386 | 0.71 | 0.94 | 115 | 18.9 |  |
| NC(=O)CN1CCN(C(c2ccccc2)c2ccccc2)CC1 [Compound 1, 2-[4-(diphenylmethyl)-1-piperazinyl]-acetamide, reference compound] |  | 2.1 | 77 |  | > 320 | antiallergic activity (PCA), in words [4]: of little interest; activity with regard to bronchospasms induced by histamine (antihistaminic), in words [1, 8]: considerbly less active; activity with regard to bronchospasms induced by serotonin (antispasmodic), in words [2, 9]: considerbly less active; diuretic activity [5]: possesses a diuretic activity |
| NC(=O)CN1CCN(C(c2ccccc2)c2ccc(Cl)cc2)CC1 (centres unmarked) [Compound 2, 2-[4-[(4-chlorophenyl)phenylmethyl]-1-piperazinyl]-acetamide, reference compound] |  | 3.1 | 11 |  | > 320 | activity as a hypocholesteremic agent [6]: not very encouraging; antiallergic activity (PCA), in words [4]: of little interest; activity with regard to bronchospasms induced by histamine (antihistaminic), in words [1, 8]: considerbly less active; activity with regard to bronchospasms induced by serotonin (antispasmodic), in words [2, 9]: considerbly less active |
| O=C(O)CN1CCN(C(c2ccccc2)c2ccccc2)CC1 [Compound 3, 2-[4-(diphenylmelthyl)-1-piperazinyl]-acetic acid, reference compound] |  | 5 | > 32 |  | > 320 | antiallergic activity (PCA), in words [4]: of little interest; activity with regard to bronchospasms induced by histamine (antihistaminic), in words [1, 8]: considerbly less active; activity with regard to bronchospasms induced by serotonin (antispasmodic), in words [2, 9]: considerbly less active |
| O=C(O)CN1CCN(C(c2ccccc2)c2ccc(Cl)cc2)CC1 (centres unmarked) [Compound 4, reference compound] |  | 7.8 | > 32 |  | > 320 | antiallergic activity (PCA), in words [4]: of little interest; activity with regard to bronchospasms induced by histamine (antihistaminic), in words [1, 8]: considerbly less active; activity with regard to bronchospasms induced by serotonin (antispasmodic), in words [2, 9]: considerbly less active |
| Cl.Cl.NC(=O)COCCN1CCN(C(c2ccccc2)c2ccccc2Cl)CC1 (centres unmarked) [D, 2-[2-[4-[(2-chlorophenyl)phenylmethyl]-1-piperazinyl]ethoxy]-acetamide dihydrochloride] | 460 | 0.63 | 1.1 | > 460 |  |  |
| COc1ccc(C(c2ccccc2)N2CCN(CCOCC(N)=O)CC2)cc1.Cl.Cl (centres unmarked) [E, 2-[2-[4-[(4-methoxyphenyl)phenylmethyl]-1-piperazinyl]ethoxy]-acetamide dihydrochloride] | 456 | 0.67 | 10 | 136 |  |  |
| Cl.Cl.NC(=O)COCCOCCN1CCN(C(c2ccccc2)c2ccccc2)CC1 [F, 2-[2-[2-[4-(Diphenylmethyl)-1-piperazinyl]ethoxy]ethoxy]-acetamide dihydrochloride] | 282 | 0.25 | 0.32 | 94 | 10.6 |  |
| Cl.Cl.NC(=O)COCCOCCN1CCN(C(c2ccccc2)c2ccc(Cl)cc2)CC1 (centres unmarked) [G, 2-[2-[2-[4-[(4-chlorophenyl)phenylmethyl]-1-piperazinyl]ethoxy]ethoxy]-acetamide dihydrochloride] | 339 | 1.14 | 0.66 | 34 |  |  |
| O=C([O-])COCCN1CCN(C(c2ccccc2)c2ccc(Cl)cc2)CC1.[K+] (centres unmarked) [H, potassium 2-[2-[4-[(4-chlorophenyl)phenylmethyl]-1-piperazinyl]ethoxy]-acetate] |  |  |  | 46.2 |  | ED50 [1]: 0.23 µmol/kg; ED50 [2]: 7 µmol/kg |
| OCCOCCN1CCN(C(c2ccccc2)c2ccc(Cl)cc2)CC1 (centres unmarked) [Hydroxyzine, 2-[2-[4-[(4-chlorophenyl)phenylmethyl]-1-piperazinyl]-ethoxy]-ethanol, reference compound] |  |  |  |  |  | Tranquilizing dose (first manifestations of tranquilization) ([3]; mouse, in vivo, ip): 27 mg/kg |
| O=C(O)COCCN1CCN(C(c2ccccc2)c2ccc(Cl)cc2)CC1 (centres unmarked) [I, 2-[2-[4-[(4-chlorophenyl)phenylmethyl]-1-piperazinyl]ethoxy]-acetic acid] |  | 0.205 | 9.44 |  |  |  |
| O=C(O)COCCN1CCN(C(c2ccccc2)c2ccc(Cl)cc2)CC1 (centres unmarked) [J, 2-[2-[4-[(4-chlorophenyl)phenylmethyl]-1-piperazinyl]ethoxy]-acetic acid] |  |  |  | 138 |  | antihistaminic activity retained ([1]; guinea pig, intravenous, 1 μmol/kg single dose, after 5 hours): 100%; ID 50, inhibition of bronchospasms induced by histamine [1, 8]: 0.20 µmol/kg; ID 50, inhibition of bronchospasms induced by serotonin [2, 9]: 7.3 µmol/kg |
| O=C(O)COCCN1CCN(C(c2ccccc2)c2ccccc2)CC1 [K, 2-[2-[4-(diphenylmethyl)-1-piperazinyl]ethoxy]-acetic acid] | 708 | 0.093 | 9.5 | 106 |  |  |
| Cl.Cl.O=C(O)COCCOCCN1CCN(C(c2ccccc2)c2ccccc2)CC1 [L, 2-[2-[2-[4-(diphenylmethyl)-1-piperazinyl]ethoxy]ethoxy]-acetic acid dihydrochloride] | 942 | 0.39 | 5.69 | 141 |  |  |
| Cl.Cl.O=C(O)COCCOCCN1CCN(C(c2ccccc2)c2ccc(Cl)cc2)CC1 (centres unmarked) [M, 2-[2-[2-[4-[(4-chlorophenyl)phenylmethyl]-1-piperazinyl]ethoxy]ethoxy]-acetic acid dihydrochloride] | 505 | 0.79 | 10 | 505 |  |  |
| O.O=C(O)COCCN1CCN(C(c2ccccc2)c2ccc(F)cc2)CC1 (centres unmarked) [N, 2-[2-[4-[(4-fluorophenyl)phenylmethyl]-1-piperazinyl]ethoxy]-acetic acid hydrate] | 372 | 0.08 | 2.1 | 372 | 10.2 |  |
| O=C1Nc2ccc(Cl)cc2C(c2ccccc2)=NC1O (centres unmarked) [Oxazepam, 7-chloro-1,3-dihydro-3-hydroxy-5-phenyl:2H-1,4-benzodiazepin-2-one, reference compound] |  |  |  | 2.6 |  |  |
| Cn1c(=O)c2[nH]cnc2n(C)c1=O [Theophylline, reference compound] |  |  |  |  |  | ED50 [1]: 10 µmol/kg; ED50 [2]: 10 µmol/kg |
| O=C(O)c1cc(=O)c2c(OCC(O)COc3cccc4oc(C(=O)O)cc(=O)c34)cccc2o1 [sodium cromoglycate] |  |  |  |  |  | antiasthmatic activity [7]: well known for its antiasthmatic activity; ID 50 per os (reduction of 50% of the surface area of the colored spot) ([4]; 15 minutes before allergen): inactive; antiallergic activity (PCA), in words [4]: inactive |
